{"source": "patent US8778928B2", "about": "(priority 2009, dated 2014)", "note": "pIC50: −log10 of the molar value. Where a name gives a salt, the structure may show the parent alone."}
{"biological_target": "α7-subtype of nicotinic receptors (Rattus norvegicus, UniProt Q05941)", "sequence (Q05941 23-502)": "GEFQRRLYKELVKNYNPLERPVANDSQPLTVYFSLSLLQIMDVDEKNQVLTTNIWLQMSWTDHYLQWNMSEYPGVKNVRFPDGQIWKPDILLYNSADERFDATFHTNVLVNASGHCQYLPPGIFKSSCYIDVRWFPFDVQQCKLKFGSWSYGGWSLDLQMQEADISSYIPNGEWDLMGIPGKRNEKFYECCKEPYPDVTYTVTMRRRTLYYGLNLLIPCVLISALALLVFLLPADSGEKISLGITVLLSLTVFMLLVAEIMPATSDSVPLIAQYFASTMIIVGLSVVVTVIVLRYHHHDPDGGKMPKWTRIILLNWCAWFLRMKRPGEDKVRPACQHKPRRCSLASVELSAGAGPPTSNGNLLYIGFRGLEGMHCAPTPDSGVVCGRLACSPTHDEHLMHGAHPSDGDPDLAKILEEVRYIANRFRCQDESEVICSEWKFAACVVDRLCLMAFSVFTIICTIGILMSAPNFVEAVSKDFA", "test": "biochemical", "format": "binding"}
{"smiles": "CC(C)n1ccc2ccc(-c3nnc(N4CCN5CCC4CC5)o3)cc21", "note": "[Compound A4, 2-(1,4-diazabicyclo[3.2.2]nonan-4-yl)-5-(1-isopropylindol-6-yl)-1,3,4-oxadiazole free base]", "pIC50": 7.41}
{"smiles": "FCCn1ccc2ccc(-c3nnc(N4CCN5CCC4CC5)o3)cc21", "note": "[Compound A2, 4-{5-[1-(2-Fluoro-ethyl)-1H-indol-6-yl]-[1,3,4]oxadiazol-2-yl}-1,4-diaza-bicyclo[3.2.2]nonane fumaric acid salt]", "pIC50": 8.38}
{"smiles": "c1cc2ccc(-c3nnc(N4CCN5CCC4CC5)o3)cc2[nH]1", "note": "[Compound A3, 2-(1,4-diazabicyclo[3.2.2]nonan-4-yl)-5-(1H-indol-6-yl)-1,3,4-oxadiazole free base]", "pIC50": 7.80}
{"smiles": "Cn1ccc2ccc(-c3nnc(N4CCN5CCC4CC5)o3)cc21", "note": "[Compound A1, 4-[5-(1-Methyl-1H-indol-6-yl)-[1,3,4]oxadiazol-2-yl]-1,4-diaza-bicyclo[3.2.2]nonane fumaric acid salt]", "pIC50": 7.96}
{"smiles": "CCn1ccc2ccc(-c3nnc(N4CCN5CCC4CC5)o3)cc21", "note": "[Compound A5, 2-(1,4-diazabicyclo[3.2.2]nonan-4-yl)-5-(1-ethylindol-6-yl)-1,3,4-oxadiazole fumaric acid salt]", "pIC50": 8.52}
